According to patent publication US7767240B2, “Microbiological control in poultry processing” (priority 2001, dated 2010):

Columns and labels:
Assay in all cases: Individual bacteria count per bird at pH 8 (Example 3)
Type in all cases: cell-based
[1] = test system: Campylobacter jejuni ATCC 29428; conditions: 25 birds per treatment, control 1282
Procedure: (§1) This group of tests was conducted to determine the effect of Clorox® bleach, Aquatize® biocide, and 1,3-dibromo-5,5-dimethylhydantoin (DBDMH) on carcass bacteria (Escherichia coli field strain) residual after 1,5-hour in a chill tank “soup”. Tests were conducted with soups at pH 7, pH 8 and pH 9 (adjusted by trisodium phosphate) for whole bird bacteria counts. Tests at pH 8 were conducted for individual bacteria counts.
(§2) In general the tests involved normal processing of 56-day-old birds and immersing the carcasses first in a warm bath containing 10^4 per mL Escherichia coli, 10^4 per mL Salmonella enteritidis, 10^4 per mL Pseudomonas aeruginosa, 10^4 per mL Campylobacter jejuni, and 10^4 per mL spoilage bacteria each from […] strains (Listeria monocytogenes and Shigella sonnei). The carcasses were then immersed in a chill tank “soup”, containing normal organic fluids (blood, fat, skin, and meat particles) and containing the microbiocides on the test.
(§3) The bacteria stock solution used for this group of tests was prepared by growing each bacteria sample in the appropriate broth shown in Table 12. […] The containers were observed and not allowed to develop a heavy, cloudy visual appearance which would indicate that the growth had developed for too long a period. Thus the solutions had the appearance of only being foggy or somewhat unclear.
(§4) The procedure used for whole bird wash sampling was as follows: • 1. All samples were kept at ≦50 degrees Fahrenheit following collection. • 2. Microbiological analyses of samples began within 24 hours of sample collection. • 3. Information on the individual sample identification, date of collection, time of collection (phase during shift), treatment group and location of sample point were recorded on each sample bottle. • 4. At each defined sample time, carcasses were taken individually from the processing line wearing latex or rubber gloves. The gloves were rinsed with alcohol between each collection. • 5. Any excess fluid was drained off from the carcass. Each individual carcass was transferred to a sterile stomacher bag. • 6. To each carcass contained in the sterile stomacher bag, 400 mL of Butterfield's Phosphate Diluent (BPD) was added while making sure to pour the BPD into the inside of the carcass cavity. The carcass was rinsed inside and out with a rocking motion for one minute (ca. 35 RPM). This was best done by grasping the broiler carcass with one hand and the closed top of the bag with the other then rocking with a reciprocal motion in a 18-24 inch arc, assuring that all surfaces (interior and exterior of the carcass) were rinsed. • 7. The rinse solutions from each stomacher bag was transferred into the sample bottles, taking care to ensure that the information on the date of collection, time of collection (phase during shift), treatment group and location of sampler point matched that of the sample. • 8. Each bottle was sealed with parafilm and placed into a styrene container with crushed or dry ice or frozen freezer packs for overnight delivery to a testing laboratory. • 9. All filled styrene containers were held in a chilled (not below freezing) area until within 1 to 2 hours of courier collection for shipment.
(§5) In greater detail the trial events and experimental design used in this group of tests were as follows: • a) Test microorganisms used were: • Escherichia coli ATCC 11229 • Pseudomonas aeruginosa ATCC 15442 • Salmonella enteritidis ATCC 13076 • Shigella sonnei ATCC 9290 • Listeria monocytogenes ATCC 7644 • Campylobacter jejuni ATCC 29428 • b) Test Procedure: All test strains were grown individually at 35° C. for 24 hours in the media specified in Table 12. Cells were harvested by centrifugation at 10,000×g for 10 minutes and washed twice with Butterfield's Phosphate Buffer (BPB of pH 7.2). Cells were resuspended in BPB to obtain a cell suspension of approximately 1.0×10^8 CFU/mL for each microorganism. […]

[2] = test system: Escherichia coli ATCC 11229; conditions: 25 birds per treatment, control 3055
Procedure: as §1, §2, §3, §4, §5

[3] = test system: Listeria monocytogenes ATCC 7644; conditions: 25 birds per treatment, control 2463
Procedure: as §1, §2, §3, §4, §5

[4] = test system: Pseudomonas aeruginosa ATCC 15442; conditions: 25 birds per treatment, control 2783
Procedure: as §1, §2, §3, §4, §5

[5] = test system: Salmonella enteritidis ATCC 13076; conditions: 25 birds per treatment, control 3969
Procedure: as §1, §2, §3, §4, §5

[6] = test system: Shigella sonnei ATCC 9290; conditions: 25 birds per treatment, control 4551
Procedure: as §1, §2, §3, §4, §5

**Q.** Which results are given for `CC1(C)C(=O)N(Br)C(=O)N1Br` [DBDMH, 1,3-dibromo-5,5-dimethylhydantoin]?
**A.** average bacteria count per bird, C. jejuni ([1]; 10 ppm): 183 per bird; average bacteria count per bird, C. jejuni ([1]; 20 ppm): 15 per bird; average bacteria count per bird, E. coli ([2]; 10 ppm): 357 per bird; average bacteria count per bird, E. coli ([2]; 20 ppm): 4 per bird; average bacteria count per bird, L. monocytogenes ([3]; 10 ppm): 262 per bird; average bacteria count per bird, L. monocytogenes ([3]; 20 ppm): 6 per bird; average bacteria count per bird, P. aeruginosa ([4]; 10 ppm): 289 per bird; average bacteria count per bird, P. aeruginosa ([4]; 20 ppm): 9 per bird; average bacteria count per bird, S. enteritidis ([5]; 10 ppm): 560 per bird; average bacteria count per bird, S. enteritidis ([5]; 20 ppm): 10 per bird; average bacteria count per bird, S. sonnei ([6]; 10 ppm): 456 per bird; average bacteria count per bird, S. sonnei ([6]; 20 ppm): 12 per bird
